Assays:
Axl(h) = biological target: T1, Axl(h) (Homo sapiens, UniProt P30530); assay: Kinase profiling of R428; assay type: biochemical; conditions: for efficiency in targeting Axl(h): 100 μM ATP, lower number = more robust inhibition
T1 sequence (P30530 26-894): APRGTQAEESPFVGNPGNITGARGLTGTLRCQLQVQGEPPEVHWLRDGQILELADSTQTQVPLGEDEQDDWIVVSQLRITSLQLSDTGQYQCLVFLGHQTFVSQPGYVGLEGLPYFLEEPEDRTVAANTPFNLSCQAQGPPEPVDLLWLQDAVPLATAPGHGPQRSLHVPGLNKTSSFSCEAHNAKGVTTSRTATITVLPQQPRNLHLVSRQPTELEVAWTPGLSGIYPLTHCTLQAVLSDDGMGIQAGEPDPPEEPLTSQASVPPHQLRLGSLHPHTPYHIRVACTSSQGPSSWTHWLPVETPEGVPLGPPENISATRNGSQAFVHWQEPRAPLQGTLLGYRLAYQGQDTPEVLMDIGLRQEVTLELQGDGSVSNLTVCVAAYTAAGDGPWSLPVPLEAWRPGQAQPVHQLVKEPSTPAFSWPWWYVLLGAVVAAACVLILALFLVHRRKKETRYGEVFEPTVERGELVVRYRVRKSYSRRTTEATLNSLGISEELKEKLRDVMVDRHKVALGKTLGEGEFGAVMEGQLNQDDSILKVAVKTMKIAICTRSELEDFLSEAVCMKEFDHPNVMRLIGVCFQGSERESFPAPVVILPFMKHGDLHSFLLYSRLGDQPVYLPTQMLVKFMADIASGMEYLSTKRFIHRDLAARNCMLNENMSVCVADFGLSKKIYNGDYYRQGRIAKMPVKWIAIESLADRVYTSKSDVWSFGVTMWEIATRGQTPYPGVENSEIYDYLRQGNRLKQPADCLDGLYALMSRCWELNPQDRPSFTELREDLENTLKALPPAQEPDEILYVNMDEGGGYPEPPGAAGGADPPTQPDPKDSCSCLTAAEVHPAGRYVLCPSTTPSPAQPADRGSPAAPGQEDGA
Procedure: (§1) The efficiency of the AXL inhibitor R428 for targeting different kinases was assessed by Kinase Profiling Services using 100 μM ATP concentration (EMD Millipore). R428 was tested at 1 and 10 μM. Table IV lists the kinases profiled along with the efficiency in targeting the kinases with a lower number indicating a more robust inhibition of a particular kinase.

CDK5/p35(h) = CDK5/p35(h) (Homo sapiens, UniProt Q00535); assay: Kinase profiling of R428; assay type: biochemical; conditions: 100 μM ATP, lower number = more robust inhibition
CDK5/p35(h), sequence (Q00535 whole entry): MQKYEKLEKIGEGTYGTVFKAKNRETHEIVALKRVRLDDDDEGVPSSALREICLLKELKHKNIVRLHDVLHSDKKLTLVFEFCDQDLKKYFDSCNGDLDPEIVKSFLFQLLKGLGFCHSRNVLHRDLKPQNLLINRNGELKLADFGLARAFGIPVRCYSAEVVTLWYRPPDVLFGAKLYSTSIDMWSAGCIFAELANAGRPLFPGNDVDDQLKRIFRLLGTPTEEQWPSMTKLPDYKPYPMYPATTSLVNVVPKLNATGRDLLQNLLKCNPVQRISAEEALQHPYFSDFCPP
CDK5/p35(h), sequence (Q15078 whole entry partner): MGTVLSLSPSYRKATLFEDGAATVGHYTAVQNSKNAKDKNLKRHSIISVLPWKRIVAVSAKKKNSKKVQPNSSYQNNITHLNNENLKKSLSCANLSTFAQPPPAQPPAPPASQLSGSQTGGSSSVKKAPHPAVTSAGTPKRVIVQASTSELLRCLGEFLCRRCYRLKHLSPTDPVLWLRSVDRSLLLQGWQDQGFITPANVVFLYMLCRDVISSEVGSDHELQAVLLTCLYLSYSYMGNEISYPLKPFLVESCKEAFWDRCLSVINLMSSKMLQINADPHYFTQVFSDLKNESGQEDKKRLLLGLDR
Procedure: as §1

MAPK1(h) = MAPK1(h) (Homo sapiens, UniProt P27361); assay: Kinase profiling of R428; assay type: biochemical; conditions: 100 μM ATP, lower number = more robust inhibition
MAPK1(h), sequence (P27361 2-379 limits assumed): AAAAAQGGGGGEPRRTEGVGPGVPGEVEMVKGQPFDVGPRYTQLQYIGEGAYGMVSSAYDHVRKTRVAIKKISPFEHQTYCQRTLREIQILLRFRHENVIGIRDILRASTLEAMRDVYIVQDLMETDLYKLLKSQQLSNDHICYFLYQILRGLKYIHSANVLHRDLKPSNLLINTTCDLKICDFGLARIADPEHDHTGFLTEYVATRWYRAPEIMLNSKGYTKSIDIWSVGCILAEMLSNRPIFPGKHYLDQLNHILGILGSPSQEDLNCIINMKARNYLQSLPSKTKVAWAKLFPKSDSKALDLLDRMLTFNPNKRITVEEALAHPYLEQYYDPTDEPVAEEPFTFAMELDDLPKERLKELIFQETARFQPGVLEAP
Procedure: as §1

TGEBR1(h) = TGEBR1(h) (Homo sapiens, UniProt P36897); assay: Kinase profiling of R428; assay type: biochemical; conditions: 100 μM ATP, lower number = more robust inhibition
TGEBR1(h), sequence (P36897 34-503): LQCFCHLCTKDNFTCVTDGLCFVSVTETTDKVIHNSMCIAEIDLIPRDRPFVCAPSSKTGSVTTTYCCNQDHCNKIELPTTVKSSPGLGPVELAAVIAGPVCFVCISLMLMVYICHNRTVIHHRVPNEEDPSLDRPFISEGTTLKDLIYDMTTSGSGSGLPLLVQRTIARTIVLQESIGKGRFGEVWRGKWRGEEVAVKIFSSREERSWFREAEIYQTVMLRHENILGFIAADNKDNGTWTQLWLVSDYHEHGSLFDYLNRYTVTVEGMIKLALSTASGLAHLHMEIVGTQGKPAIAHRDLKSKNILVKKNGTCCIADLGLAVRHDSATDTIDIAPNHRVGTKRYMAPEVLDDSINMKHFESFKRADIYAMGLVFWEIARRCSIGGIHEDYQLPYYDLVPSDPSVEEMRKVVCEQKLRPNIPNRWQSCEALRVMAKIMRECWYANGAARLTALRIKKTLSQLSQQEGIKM
Procedure: as §1

ZIPK(h) = ZIPK(h) (Homo sapiens, UniProt O43293); assay: Kinase profiling of R428; assay type: biochemical; conditions: 100 μM ATP, lower number = more robust inhibition
ZIPK(h), sequence (O43293 whole entry): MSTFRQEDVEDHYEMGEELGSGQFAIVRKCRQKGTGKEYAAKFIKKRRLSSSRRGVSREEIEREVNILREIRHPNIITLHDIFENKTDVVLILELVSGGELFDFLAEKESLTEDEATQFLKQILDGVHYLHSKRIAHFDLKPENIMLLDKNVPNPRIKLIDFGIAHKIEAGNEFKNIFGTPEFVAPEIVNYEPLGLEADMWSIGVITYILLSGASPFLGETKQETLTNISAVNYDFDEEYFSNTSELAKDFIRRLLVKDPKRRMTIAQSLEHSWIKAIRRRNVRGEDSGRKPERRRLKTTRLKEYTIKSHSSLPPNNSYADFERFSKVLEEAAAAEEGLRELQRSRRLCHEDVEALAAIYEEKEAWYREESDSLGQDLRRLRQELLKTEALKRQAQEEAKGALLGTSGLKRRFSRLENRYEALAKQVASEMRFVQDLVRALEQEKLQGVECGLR
Procedure: as §1

MAFA expression [1] = assay: Stage 7 treatment, real-time PCR of MAFA (Example 6); assay type: cell-based, human; conditions: Stage 7, day 7, 2 μM in Stage 7 medium, H1-derived cells, mRNA
Procedure: (§2) Cells of the human embryonic stem cell line H1 (WA01) were seeded as single cells at 1×10^5 cells/cm^2 on MATRIGEL™ (1:30 dilution) coated dishes in E8 media. At about 70 to 80% confluency, the cultures were washed in 1× incomplete DPBS followed by incubation with 1× TrypLET™ Express Enzyme for 3 to 5 minutes at 37° C. The released cells were rinsed with E8 and spun at 1000 rpm for 5 minutes. The resulting cell pellet was resuspended in E8 supplemented with 10 μM Y-27632 and the single cell suspension was seeded at approximately 1.3 to 1.5×10^5 cells/cm^2. The cultures were fed every day with E8 medium and differentiation, according to the following protocol, was initiated 48 hrs. following seeding resulting in an about 90% starting confluency.
Stage 6 cells were cultured for seven days in BLAR medium supplemented with a 1:100 dilution of ITS-X; 20 mM glucose (final); 1.5 g/L sodium bicarbonate; 2% FAF-BSA; 10 μg/ml of heparin, 10 μM ZnSO4, 1 μM T3 as 3,3′, 5-triiodo-L-thyronine sodium salt, 10 μM ALK5 inhibitor II, 1 mM N-acetyl cysteine. […]
At Stage 7, day 7, mRNA was collected and expression of MAFA, UCN3, PDX1, NKX6.1, insulin and G6PC2 evaluated as compared to undifferentiated human stem cells. […]

MAFA expression [2] = assay: Stage 7 treatment, real-time PCR of MAFA (Example 7); assay type: cell-based, human; conditions: Stage 7, day 14, 2 μM R428 or 2-5 μM inhibitor substituted for R428, H1-derived cells, mRNA
Procedure: as §2, with “TrypLE™” for “TrypLET™”
Stage 6 cells were cultured for fourteen days in BLAR medium supplemented with a 1:100 dilution of ITS-X; 20 mM glucose (final); 1.5 g/L sodium bicarbonate; 2% FAF-BSA; 10 μg/ml of heparin, 10 μM ZnSO4, 1 μM T3 as 3,3′, 5-triiodo-L-thyronine sodium salt, 10 μM ALK5 inhibitor II, 1 mM N-acetyl cysteine. Some cultures also included one of 2 μM R428, 2-5 μM RSK inhibitor II (2-(3,5-Difluoro-4-hydroxy-anilino)-8-isopentyl-5,7-dimethyl-7H-pteridin-6-one) (EMD Millipore; Catalog No, 559286-5MG), 2-5 μM aurora kinase inhibitor II (EMD Millipore, or a combination of 2-5 μM RSK inhibitor II and 2-5 μM aurora kinase II inhibitor.
At Stage 7, day 14, mRNA was collected and compared to undifferentiated human stem cells.

Nc1nc(Nc2ccc3c(c2)CC[C@@H](N2CCCC2)CC3)nn1-c1cc2c(nn1)-c1ccccc1CCC2 [R428, 1H-1,2,4-Triazole-3,5-diamine, 1-(6,7-dihydro-5H-benzo[6,7]cyclohepta[1,2-c]pyridazin-3-yl) N3-[(7S)-6,7,8,9-tetrahydro-7-(1-pyrrolidinyl)-5H-benzocyclohepten-2-yl]-]
efficiency in targeting Axl(h) (Axl(h); R428 @ 1 μM): −1 | efficiency in targeting Axl(h) (Axl(h); R428 @ 10 μM): −1 | inhibition of AXL (in words) (Axl(h); kinase profiling results): inhibits AXL as expected | efficiency in targeting CDK5/p35(h) (CDK5/p35(h); R428 @ 1 μM): 101 | efficiency in targeting CDK5/p35(h) (CDK5/p35(h); R428 @ 10 μM): 94 | efficiency in targeting MAPK1(h) (MAPK1(h); R428 @ 1 μM): 108 | efficiency in targeting MAPK1(h) (MAPK1(h); R428 @ 10 μM): 106 | efficiency in targeting TGEBR1(h) (TGEBR1(h); R428 @ 1 μM): 97 | efficiency in targeting TGEBR1(h) (TGEBR1(h); R428 @ 10 μM): 69 | efficiency in targeting ZIPK(h) (ZIPK(h); R428 @ 1 μM): 97 | efficiency in targeting ZIPK(h) (ZIPK(h); R428 @ 10 μM): 46 | MAFA expression (MAFA expression [1]): increases MAFA expression | MAFA expression (MAFA expression [2]): removal of R428 resulted in a significant decrease in MAFA expression
